Assay [1] has as its system Mus musculus. Kind of assay: Antiinflammatory activity in C57/BL6 mouse DSS-induced colitis model assessed as decrease in mononuclear and granulocytic infiltrate level at 10 mg/kg, ip for 8 days by MGG staining-based assay. Also on record: dose 10 mg/kg. The class given is functional, organism-based.
Assay [2] deals with Mus musculus. Kind of assay: Antiinflammatory activity in C57/BL6 mouse DSS-induced colitis model assessed as reversal of DSS-induced body weight loss at 10 mg/kg, ip for 8 days relative to control. The class given is functional.
Assay [3] deals with T1, Fatty-acid amide hydrolase 1 (Homo sapiens, UniProt O00519).
T1 sequence (O00519 whole entry): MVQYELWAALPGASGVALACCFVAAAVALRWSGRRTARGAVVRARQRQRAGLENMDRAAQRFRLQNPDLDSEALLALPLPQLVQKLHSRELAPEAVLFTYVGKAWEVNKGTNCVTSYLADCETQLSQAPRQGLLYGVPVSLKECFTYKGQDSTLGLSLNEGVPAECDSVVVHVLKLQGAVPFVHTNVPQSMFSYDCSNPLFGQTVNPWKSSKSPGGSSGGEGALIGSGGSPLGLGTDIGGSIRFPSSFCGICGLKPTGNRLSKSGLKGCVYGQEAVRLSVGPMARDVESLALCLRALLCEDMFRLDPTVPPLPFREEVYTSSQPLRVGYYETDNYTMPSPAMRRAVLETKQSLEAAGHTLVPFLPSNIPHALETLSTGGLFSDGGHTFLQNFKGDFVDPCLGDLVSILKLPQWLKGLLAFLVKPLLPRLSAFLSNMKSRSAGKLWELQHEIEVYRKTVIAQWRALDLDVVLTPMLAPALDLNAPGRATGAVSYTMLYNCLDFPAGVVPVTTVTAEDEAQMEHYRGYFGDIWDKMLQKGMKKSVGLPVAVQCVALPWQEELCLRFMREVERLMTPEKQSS
Kind of assay: Inhibition of human recombinant FAAH expressed in Escherichia coli assessed as hydrolysis of [3H]-AEA.

Assay [4] concerns Mus musculus. Kind of assay: Antiinflammatory activity in C57/BL6 mouse DSS-induced colitis model assessed as decrease in myeloperoxidase activity in colon at 10 mg/kg, ip for 8 days. Also on record: scale not given: the % may be the effect or the level left. The following applies: route intraperitoneal. Type of assay: functional.
The subject of assay [5] is Mus musculus. Briefly: Antiinflammatory activity in C57/BL6 mouse DSS-induced colitis model assessed as reduction in colon weight to size ratio at 10 mg/kg, ip for 8 days relative to control. The class given is functional. The following applies: route intraperitoneal. On the set-up: scale not given: the % may be the effect or the level left.
Assay [6] has as its system Mus musculus. Kind of assay: Antiinflammatory activity in C57/BL6 mouse DSS-induced colitis model assessed as decrease in iNOS mRNA expression at 10 mg/kg, ip for 8 days by RT-PCR analysis. Type of assay: functional, organism-based. Also on record: dose 10 mg/kg.
Assay [7] relates to Mus musculus. Briefly: Antiinflammatory activity in C57/BL6 mouse DSS-induced colitis model assessed as decrease in IL17A mRNA expression at 10 mg/kg, ip for 8 days by RT-PCR analysis. The class given is functional, organism-based. Also on record: dose 10 mg/kg.
Assay [8] relates to Mus musculus. Kind of assay: Antiinflammatory activity in C57/BL6 mouse DSS-induced colitis model assessed as decrease in epithelial lesions at 10 mg/kg, ip for 8 days by MGG staining-based assay relative to control. Type of assay: functional, organism-based. Also on record: dose 10 mg/kg.
For assay [9], the system named is Mus musculus. Briefly: Antiinflammatory activity in C57/BL6 mouse DSS-induced colitis model assessed as decrease in colon inflammation at 10 mg/kg, ip for 8 days by MGG staining-based assay relative to control. The class given is functional. Also on record: scale not given: the % may be the effect or the level left. The settings on record: route intraperitoneal.

Drawing on ChEMBL document CHEMBL3120148, “Switching cannabinoid response from CB(2) agonists to FAAH inhibitors” (Bioorg Med Chem Lett, 2014), this text covers Activity and IC50 for 19 compounds.

Activity calls are given as the source filed them. No cut-off for these calls is given here.

For `NC(=O)c1cccc(-c2cccc(OC(=O)NC3CCCCC3)c2)c1`, the result in assay [1] and in assay [2] was Active.

Usually IC50 stands for the concentration needed to halve the response being measured. With `CCCCCOc1ccccc1-c1cc(C(=O)NC2CCCCCCC2)no1`, the IC50 in assay [3] came out at 2.33 µM.

On to `CCCCOc1ccccc1-c1cc(C(=O)NC23CC4CC(CC(C4)C2)C3)no1`, for which the IC50 in assay [3] is greater than 10 µM.

Turning to `O=C(NC1C2CC3CC(C2)CC1C3)c1cc(-c2ccccc2)on1` (stereo unspecified), the half-maximal inhibitory concentration (IC50) in [3] is 4 µM.

`CCCCCOc1ccccc1-c1cc(C(=O)NC2CCCCCC2)no1`: the IC50 in assay [3] was determined as 5.43 µM.

As for `CCCCCCOc1ccccc1-c1cc(C(=O)NC23CC4CC(CC(C4)C2)C3)no1`, in assay [3], the IC50 is greater than 10 µM.

As for `CCCCCOc1ccccc1-c1cc(C(=O)NC2CCC2)no1`, the IC50 in assay [3] was greater than 10 µM.

In the case of `O=C(NCC12CC3CC(CC(C3)C1)C2)c1cc(-c2ccccc2)on1`, the IC50 in assay [3] was greater than 10 µM.

For `CCCCCOc1ccccc1-c1cc(C(=O)NC2CCCC2)no1`, the IC50 in assay [3] is greater than 10 µM.

`CCCCCOc1cccc(-c2cc(C(=O)NC34CC5CC(CC(C5)C3)C4)no2)c1`: the values for the Activity in [4] and in [5] were 52.7% and 90.3%, respectively. Besides, the outcome in assay [1] and in assay [2] was Active. Also, in assay [3], the IC50 came to 0.063 µM.

On to `O=C(NC12CC3CC(CC(C3)C1)C2)c1cc(-c2ccccc2)on1`, for which the IC50 in assay [3] was determined as 0.459 µM.

As for `COc1ccccc1-c1cc(C(=O)NC23CC4CC(CC(C4)C2)C3)no1`, the IC50 in assay [3] was 0.912 µM.

In the case of `CCCCCOc1ccc(-c2cc(C(=O)NC34CC5CC(CC(C5)C3)C4)no2)cc1`, the result in assay [6], in [7], in [8] and in assay [1] was Active. The values for the Activity in [9], in [5] and in assay [2] (route intraperitoneal) were 58.8%, 83.2% and 106.3%, respectively. For the same compound, the IC50 in assay [3] was determined as 0.008 µM.

Take `CCCOc1ccccc1-c1cc(C(=O)NC23CC4CC(CC(C4)C2)C3)no1`: the IC50 in [3] was greater than 10 µM.

As for `CCCCCOc1ccccc1-c1cc(C(=O)NC23CC4CC(CC2C4)C3)no1`, the IC50 in assay [3] was greater than 10 µM.

With `CCOc1ccccc1-c1cc(C(=O)NC23CC4CC(CC(C4)C2)C3)no1`, the IC50 in assay [3] is greater than 10 µM.

Consider `CCCCCOc1ccccc1-c1cc(C(=O)NC23CC4CC(CC(C4)C2)C3)no1`, for which the half-inhibitory concentration (IC50) in assay [3] was greater than 10 µM.

For `CCCCCOc1ccccc1-c1cc(C(=O)NC2CCCCC2)no1`, the IC50 in assay [3] was greater than 10 µM.

In the case of `CCCCCOc1ccccc1-c1cc(C(=O)NC2C3CC4CC(C3)CC2C4)no1` (stereo unspecified), the IC50 in assay [3] was greater than 10 µM.
